Reference: PubChem BioAssay (NCI)
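Exposure lasted 48 hours, with cells grown in 96-well plates and compounds tested at five concentrations. GI50 marks 50% less growth. TGI is the concentration that stops growth completely.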

Columns and labels:
Test in all cases: growth of human tumour cells (NCI), 48 h
COLO 205 colon = test system: COLO 205 colon
T-47D breast = test system: T-47D breast
SK-OV-3 ovarian = test system: SK-OV-3 ovarian
HL-60(TB) leukemia = test system: HL-60(TB) leukemia
MDA-MB-435 = test system: MDA-MB-435
K-562 leukemia = test system: K-562 leukemia
HOP-62 NSCLC = test system: HOP-62 NSCLC
UACC-62 melanoma = test system: UACC-62 melanoma
SR leukemia = test system: SR leukemia
MOLT-4 leukemia = test system: MOLT-4 leukemia
786-0 renal = test system: 786-0 renal
SW-620 colon = test system: SW-620 colon
OVCAR-4 ovarian = test system: OVCAR-4 ovarian
M14 melanoma = test system: M14 melanoma
NCI-H23 lung = test system: NCI-H23 lung
MCF7 breast = test system: MCF7 breast
CAKI-1 renal = test system: CAKI-1 renal
RPMI-8226 leukemia = test system: RPMI-8226 leukemia
SK-MEL-28 melanoma = test system: SK-MEL-28 melanoma
SNB-75 CNS = test system: SNB-75 CNS
ACHN renal = test system: ACHN renal
OVCAR-5 ovarian = test system: OVCAR-5 ovarian
SK-MEL-2 melanoma = test system: SK-MEL-2 melanoma
NCI-H460 lung = test system: NCI-H460 lung
SF-268 CNS = test system: SF-268 CNS
IGROV1 ovarian = test system: IGROV1 ovarian
A549 NSCLC = test system: A549 NSCLC
SK-MEL-5 melanoma = test system: SK-MEL-5 melanoma
RXF 393 renal = test system: RXF 393 renal
U251 CNS = test system: U251 CNS
NCI/ADR-RES ovarian = test system: NCI/ADR-RES ovarian
CCRF-CEM leukemia = test system: CCRF-CEM leukemia
MALME-3M melanoma = test system: MALME-3M melanoma
HS 578T breast = test system: HS 578T breast
MDA-MB-231 breast = test system: MDA-MB-231 breast
SNB-19 CNS = test system: SNB-19 CNS
A498 renal = test system: A498 renal
NCI-H522 lung = test system: NCI-H522 lung
HOP-92 NSCLC = test system: HOP-92 NSCLC
DU-145 prostate = test system: DU-145 prostate
SF-539 CNS = test system: SF-539 CNS
NCI-H226 lung = test system: NCI-H226 lung

SMILES: O=CC(O)C(O)C(O)C(O)COP(=O)(O)Cc1ccccc1 (stereo unspecified)
- TGI (COLO 205 colon): > 10 µM
- TGI (T-47D breast): > 10 µM
- TGI (SK-OV-3 ovarian): > 10 µM
- TGI (HL-60(TB) leukemia): > 10 µM
- TGI (MDA-MB-435): > 10 µM
- TGI (K-562 leukemia): > 10 µM
- TGI (HOP-62 NSCLC): > 10 µM
- TGI (UACC-62 melanoma): > 10 µM
- TGI (SR leukemia): > 10 µM
- TGI (MOLT-4 leukemia): > 10 µM
- TGI (786-0 renal): > 10 µM
- TGI (SW-620 colon): > 10 µM
- TGI (OVCAR-4 ovarian): > 10 µM
- TGI (M14 melanoma): > 10 µM
- TGI (NCI-H23 lung): > 10 µM
- TGI (MCF7 breast): > 10 µM
- TGI (CAKI-1 renal): > 10 µM
- TGI (RPMI-8226 leukemia): > 10 µM
- TGI (SK-MEL-28 melanoma): > 10 µM
- TGI (SNB-75 CNS): > 10 µM
- TGI (ACHN renal): > 10 µM
- TGI (OVCAR-5 ovarian): > 10 µM
- TGI (SK-MEL-2 melanoma): > 10 µM
- TGI (NCI-H460 lung): > 10 µM
- TGI (SF-268 CNS): > 10 µM
- TGI (IGROV1 ovarian): > 10 µM
- TGI (A549 NSCLC): > 10 µM
- TGI (SK-MEL-5 melanoma): > 10 µM
- TGI (RXF 393 renal): > 10 µM
- TGI (U251 CNS): > 10 µM
- TGI (NCI/ADR-RES ovarian): > 10 µM
- TGI (CCRF-CEM leukemia): > 10 µM
- TGI (MALME-3M melanoma): > 10 µM

SMILES: Nc1nc(Cl)c(N=Nc2ccc(Cl)cc2)c(NCC2(CO)CC2)n1
- GI50 (SK-OV-3 ovarian): 14.2 µM
- GI50 (HOP-62 NSCLC): 28.7 µM
- GI50 (HS 578T breast): 12.6 µM
- GI50 (MDA-MB-231 breast): 11.1 µM
- GI50 (CAKI-1 renal): 5.06 µM
- GI50 (SNB-19 CNS): 50 µM
- GI50 (A498 renal): 90.9 µM
- GI50 (SNB-75 CNS): 10.3 µM
- GI50 (ACHN renal): 0.411 µM
- GI50 (SF-268 CNS): 40.9 µM
- GI50 (NCI-H522 lung): 47.5 µM
- GI50 (RXF 393 renal): 33.5 µM
- GI50 (HOP-92 NSCLC): 1.08 µM
- TGI (HOP-92 NSCLC): 38.1 µM

SMILES: O=C(Nc1ccc2ncnc(Nc3ccc(Oc4cccc(F)c4)c(Cl)c3)c2c1)c1ccc(CNCCO)cc1
- GI50 (COLO 205 colon): 1.8 µM
- TGI (COLO 205 colon): 3.56 µM
- GI50 (SK-OV-3 ovarian): 1.14 µM
- TGI (SK-OV-3 ovarian): 2.53 µM
- GI50 (HL-60(TB) leukemia): 2.06 µM
- TGI (HL-60(TB) leukemia): 4.74 µM
- GI50 (UACC-62 melanoma): 1.7 µM
- TGI (UACC-62 melanoma): 3.07 µM
- GI50 (HS 578T breast): 1.64 µM
- TGI (HS 578T breast): 4.42 µM
- GI50 (MDA-MB-231 breast): 1.73 µM
- TGI (MDA-MB-231 breast): 3.27 µM
- GI50 (SW-620 colon): 1.83 µM
- TGI (SW-620 colon): 3.52 µM
- GI50 (OVCAR-4 ovarian): 1.88 µM
- TGI (OVCAR-4 ovarian): 4.81 µM
- GI50 (DU-145 prostate): 1.8 µM
- TGI (DU-145 prostate): 3.44 µM
- GI50 (SF-539 CNS): 1.62 µM
- TGI (SF-539 CNS): 3.01 µM
- GI50 (A498 renal): 2.58 µM
- TGI (A498 renal): 23.4 µM
- GI50 (SK-MEL-28 melanoma): 1.69 µM
- TGI (SK-MEL-28 melanoma): 3.08 µM
- GI50 (ACHN renal): 1.59 µM
- TGI (ACHN renal): 3.05 µM
- GI50 (OVCAR-5 ovarian): 1.63 µM
- TGI (OVCAR-5 ovarian): 3.17 µM
- GI50 (NCI-H226 lung): 19.7 µM
- TGI (NCI-H226 lung): 56.1 µM
- GI50 (NCI/ADR-RES ovarian): 7.2 µM
- TGI (NCI/ADR-RES ovarian): 36.9 µM
- GI50 (MALME-3M melanoma): 1.52 µM
- TGI (MALME-3M melanoma): 2.93 µM
